Source: ChEMBL document CHEMBL3414482, “Structure-activity relationship of pyrrolyl diketo acid derivatives as dual inhibitors of HIV-1 integrase and reverse transcriptase ribonuclease H domain” (J Med Chem, 2015)

Biological target: Human immunodeficiency virus type 1 reverse transcriptase (Human immunodeficiency virus 1, UniProt Q72547)

Compound	IC50 [µM]
CCOC(=O)/C(N)=C/C(=O)c1cn(Cc2ccc(F)cc2)cc1-c1ccccc1	72
CCOC(=O)/C(O)=C/C(=O)/C=C/c1cc(C(=O)c2ccc(F)cc2)cn1C	28
CCOC(=O)/C(O)=C/C(=O)/C=C/c1cn(Cc2ccc(F)cc2)cc1-c1ccccc1	3
C/C(C(=O)c1cn(Cc2ccc(F)cc2)cc1-c1ccccc1)=C(/O)C(=O)O	64
O=C(/C=C(\O)C(=O)O)/C=C/c1cc(C(=O)c2ccc(F)cc2)cn1Cc1ccccc1	7.5
Cn1cc(C(=O)c2ccc(F)cc2)cc1/C=C/C(=O)/C=C(\O)C(=O)O	20
N/C(=C\C(=O)c1cn(Cc2ccc(F)cc2)cc1-c1ccccc1)C(=O)O (mixture of isomers)	2
